We go through seven compounds from patent publication US20230235283A1, “CULTURE MEDIUM FOR ESOPHAGEAL SQUAMOUS CELL CARCINOMA EPITHELIAL CELLS, CULTURE METHOD, AND APPLICATION THEREOF” (PRECEDO PHARMACEUTICALS CO., LTD, priority 2020, published 2023).

Common to all, as to type: cell-based, human
In assay [1] the test system is ESCC tumor cells (No. 0F0064). Description: Effects of different factors added to basic medium BM on proliferation of primary ESCC cells (cell count). Particulars: factor added to BM at concentrations of Table 3; 12 days of culture; FIGS. 1A-1E. The protocol: Extracellular matrix gel (Matrigel®) (manufactured by BD Biosciences) was diluted at 1:100 in serum-free DMEM/F12 medium to prepare an extracellular matrix dilution, which was added to a 48-well culture plate with 500 μl/well to completely cover the bottom of the wells of the culture plate. The resultant was let stand for 1 hour in a 37° C. incubator. After 1 hour, the extracellular matrix dilution was removed to provide a Matrigel-coated plate.
Preparation of basic medium (abbreviated as BM): BM was prepared by adding 0.2 vol. % of Primocin (purchased from Invivogen, with a concentration of 50 mg/mL) to the commercial DMEM/F-12 medium to provide a final concentration of 100 μg/mL.
Next, different kinds and concentrations of additive factors (Table 3) were added to the basic medium (BM), so as to prepare culture mediums for ESCC epithelial cells containing different additive components.
The culture mediums with different components were added at a volume of 500 μl/well to 48-well plates which were coated with extracellular matrix gel (Matrigel). ESCC tumor cells (No. 0F0064) isolated from ESCC tissue according to the same method described in Example 1 were inoculated in a Matrigel-coated 48-well culture plate at a cell density of 2×10^4 cells/cm^2. After surface disinfection, the plate was placed in a 37° C., 5% CO2 incubator (purchased from Thermo Fisher), such that equal numbers of freshly isolated ESCC tumor cells (No. 0F0064) were cultured under different medium formulations. The culture mediums were renewed every 4 days after the start of the culture. After 12 days of culture, cell counts were performed. As an experiment control, the basis medium (BM) without any additive was used. The ordinate in each figure represents the ratio of the number of cells obtained after culture in different mediums to the number of cells obtained after culture in basic medium BM. As shown in the figures, the addition of different concentrations of different factors as shown in Table 3 to BM has different effects on cell proliferation.

Assay [2] concerns ESCC tumor cells (Sample No. 0F0065). As to the kind of experiment: Effects of different concentrations of the additive factors in FEM on proliferation of primary ESCC cells. As to conditions: factor added back to FEM lacking it; first passage; FIGS. 3A-3H; preferably. The protocol: Extracellular matrix gel (Matrigel®) (manufactured by BD Biosciences) was diluted at 1:100 in serum-free DMEM/F12 medium to prepare an extracellular matrix dilution, which was added to a 48-well culture plate with 200 μl/well to completely cover the bottom of the wells of the culture plate. The resultant was let stand for 1 hour in a 37° C. incubator. After 1 hour, the extracellular matrix dilution was removed to provide a Matrigel-coated plate. […]
ESCC epithelial cells originated from cancer tissue were isolated and obtained from the cancer tissue of an ESCC patient (Sample No. 0F0065) using the same method as in Example 1. Next, ESCC tumor cells originated from cancer tissue were counted with a flow imaging counter (JIMBIO FIL, Jiangsu Jimbio Technology Co., Ltd.) to obtain the total number of cells. […] The centrifuged cell sediments were resuspended in the basic medium BM and were counted with a flow imaging counter (JIMBIO FIL, Jiangsu Jimbio Technology Co., Ltd.) to obtain the total number of cells. […]

For assay [3], the system named is primary ESCC tumor cells (No. 0F0061). As to the kind of experiment: Effects of removing single factor or combination of factors from FEM on continuous expansion of primary ESCC cells. Particulars: continuous culture, third passage; FIG. 12 and FIG. 13. The protocol: The culture medium for primary ESCC epithelial cell FEM was prepared in the same method of Example 2. As a control, a basic medium (hereinafter also referred to as “BM”) was prepared using the same method of Example 2. In addition, six other different culture mediums were prepared according to Table 9.
ESCC tissue-originated primary ESCC tumor cells (No. 0F0061) were obtained by using the same method as in Example 1. Then, the primary ESCC tumor cells were inoculated in a Matrigel® (manufactured by BD Biosciences)-coated 24-well plate at a density of 4×10^4 cells/cm^2. 1 mL of the culture medium for primary ESCC epithelial cells (FEM) of the invention was used, which was then placed in a 37° C., 5% CO2 incubator (purchased from Thermo Fisher) for culture.
When the cells in the culture plate grew to cover about 80% of the bottom area, the medium supernatant in the 24-well plate was discarded and 400 μL 0.05% trypsin (purchased from Gibco) was added for cell digestion; the cells were incubated at 37° C. for 10 minutes until the cells were completely digested as observed under the microscope (EVOS M500, Invitrogen); then the digestion was terminated by using 800 μL of DMEM/F12 culture solution containing 5% (v/v) fetal bovine serum, 100 U/mL penicillin, and 100 μg/mL penicillin; the resultant was collected into a 15 mL centrifuge tube and centrifuged at 1500 rpm for 4 minutes, and then the supernatant was discarded. The centrifuged cell sediments were resuspended in the culture medium of the invention and were counted with a flow imaging counter (JIMBIO FIL, Jiangsu Jimbio Technology Co., Ltd.) to obtain the total number of cells. The cells were incubated into another 24-well culture plate coated with extracellular matrix gel at a density of 2×10^4 cells/cm^2 for further culture. The cells were inoculated into the 24-well culture plate coated with extracellular matrix gel at the same density using other seven different mediums for culture.
When the passaged cells grew in the culture plate to cover about 80% of the bottom area of the plate again, the cultured cells were digested, collected and counted according to the above operating method. The cells were inoculated at a density of 2×10^4 cells/cm^2 again and cultured continuously using the respective culture mediums of different compositions.
The following is the formula for calculating the cell population doubling number of primary ESCC epithelial cells under different culture conditions:
Population Doubling (PD)=3.32*log10 (total number of digested cells/the number of cells at initial inoculation), see Chapman et al., Stem Cell Research & Therapy 2014, 5: 60. […]

For “insulin-like growth factor 1: growth factor from Sino Biological”, the “effect on cell proliferation (ratio of number of cells to that in basic medium BM)” value in assay [1] was “promoting effects on cell proliferation”.

For “epidermal growth factor: growth factor from Sino Biological (NSDSECPLSHDGYCLHDGVCMYIEALDKYACNCVVGYIGERCQYRDLKWWELR; Epidermal growth factor; UniProt P01133 971-1023, looked up)”, in assay [1], the “effect on cell proliferation (ratio of number of cells to that in basic medium BM)” value is recorded as “promoting effects on cell proliferation”.

Regarding “hepatocyte growth factor: growth factor from Sino Biological”, the “amount in the culture medium, preferable (proliferation ratio to control well)” value in assay [2] lay within 2.5 to 20 ng/mL. Further, the “effect on cell proliferation (ratio of number of cells to that in basic medium BM)” value in assay [1] was “promoting effects on cell proliferation”.

For the compound `Oc1ccc(-c2nc(-c3ccncc3)c(-c3ccc(F)cc3)[nH]2)cc1` [SB202190], in assay [3], the “proliferation effect of cells after removal of the component from FEM” value (“proliferation effect of cells” below) is reported as “significantly attenuated”.

Take `CN1C(=O)C(c2c(F)cccc2F)N(C)c2nc(Nc3ccc(S(N)(=O)=O)cc3)ncc21` (stereo not shown) [Compound 1, 4-((7-(2,6-difluorophenyl)-5,8-dimethyl-6-oxo-5,6,7,8-tetrahydropteridin-2-yl)amino)benzsulfamide]: in assay [3], the “proliferation effect of cells” value is listed as “significantly attenuated”. Moreover, the “effect on cell proliferation (ratio of number of cells to that in basic medium BM)” value in assay [1] is “promoting effects on cell proliferation”.

Take `C[C@@H](N)[C@H]1CC[C@H](C(=O)Nc2ccncc2)CC1` [Compound Y27632, reference compound]: the “proliferation effect of cells” value in assay [3] is given as “significantly attenuated”. For the same compound, in assay [1], the “effect on cell proliferation (ratio of number of cells to that in basic medium BM)” value was “promoting effects on cell proliferation”.

As to `Cc1cccc(-c2nn(C(=S)Nc3ccccc3)cc2-c2ccnc3ccccc23)n1` [Compound A83-01], in assay [3], the “proliferation effect of cells” value is listed as “significantly attenuated”.
